Data reported in the supplement of paper PMC10307832.

Legend:
[1] = compound: Cc1cc([C@@H](C)Nc2ccccc2C(=O)O)c2nc(N3CCOCC3)cc(=O)n2c1 [AZD6482]; assay: relative viability (nuclei count vs DMSO), 5 days (fraction); higher = more cells survive
Method in brief: (§1)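 Lung cancer cell lines in 1536-well plates were exposed by pinning to five library-drug doses (not always all listed) √10 apart, following an overnight hold at 37 °C. MetaXpress counted Hoechst-stained nuclei from 4× images taken after 5 days without medium change. Viability is the median ratio of treated-well to vehicle-well nuclei across plates. Plates required control CV below 25% and at least one doubling.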

[2] = compound: COc1cc2nc(N3CCCN(C)CC3)nc(NC3CCN(Cc4ccccc4)CC3)c2cc1OC; assay: as above
Method in brief: as §1

Cell Line	relative viability ([1]; 0.08 µM)	relative viability ([1]; 0.253 µM)	relative viability ([1]; 0.8 µM)	relative viability ([1]; 2.53 µM)	relative viability ([1]; 8 µM)	relative viability ([2]; 0.2 µM)	relative viability ([2]; 0.6325 µM)	relative viability ([2]; 2 µM)	relative viability ([2]; 6.325 µM)
201T	0.977	0.97	0.969	0.771	0.958	0.976	1.05	1.01	0.983
A549	0.935	0.965	0.947	0.566	0.769	1.02	1.01	0.992	0.935
A-427	0.965	0.884	1.02	0.651	0.974	0.922	1.06	1.01	0.882
ABC-1	0.953	0.897	0.97	0.849	0.713	0.924	1.12	1	0.926
BEN	0.889	0.791	1.05	0.803	0.853	1.03	1.06	1.19	1.04
CAL-12T	0.959	0.979	1.1	0.731	0.839	0.905	0.964	1.02	0.933
COR-L23	0.808	1.02	1.08	0.845	0.834	0.942	1.03	1.06	1.03
COR-L 105	0.825	0.904	0.874	0.577	0.801	0.868	1.08	0.793	0.621
Calu-6	0.951	0.938	0.992	0.824	0.875	0.968	0.942	1.09	0.913
ChaGo-K-1	1.07	0.839	1.05	0.91	0.983	0.944	0.985	1.03	0.94
EBC-1	0.881	0.923	0.855	0.467	0.449	0.948	0.9	0.976	0.827
EKVX	0.813	0.819	0.832	0.549	0.654	0.953	1.04	0.962	0.954
EMC-BAC-2	0.976	0.898	1.01	0.722	0.748	1.14	0.981	0.996	1.04
EPLC-272H	0.778	0.71	0.888	0.535	0.596	0.918	1	1.2	0.783
H3255	0.996	0.918	0.979	0.688	0.835	0.915	0.986	1.1	0.961
HARA	0.844	0.978	1.13	0.782	0.875	0.895	1.13	1.08	0.919
HCC-15	1.03	0.962	1.04	0.857	0.945	0.985	0.977	1.06	0.862
HCC-44	0.873	0.971	1	1.05	1.03	0.98	0.996	0.998	0.981
HCC-78	0.749	0.622	0.632	0.372	0.405	0.937	1.04	1.08	1.02
HCC-366	0.975	0.979	0.996	0.885	0.827	1.01	1.03	0.968	1.01
HCC-827	0.979	1.02	1.02	0.854	0.918	1.05	1.04	1	1.01
HOP-62	1.11	1.1	1.09	0.833	1.01	0.965	0.954	1.1	0.96
IA-LM	0.979	0.99	1.03	–	0.842	0.941	0.865	1.08	0.862
LC-2-ad	0.982	0.891	1.07	0.658	0.693	0.929	1.05	1.09	0.955
LCLC-97TM1	1.03	0.865	0.855	–	0.836	0.936	0.996	1.09	0.947

Cell Line	relative viability ([1]; 0.08 µM)	relative viability ([1]; 0.253 µM)	relative viability ([1]; 0.8 µM)	relative viability ([1]; 2.53 µM)	relative viability ([1]; 8 µM)	relative viability ([2]; 0.2 µM)	relative viability ([2]; 0.6325 µM)	relative viability ([2]; 2 µM)	relative viability ([2]; 6.325 µM)
LCLC-103H	0.875	1.04	0.948	0.655	0.575	0.992	1.03	1.1	0.978
LK-2	1.07	0.915	1.07	0.818	0.781	1	1.09	1.06	0.995
LOU-NH91	0.852	0.918	0.959	0.61	0.744	0.96	1.13	0.838	0.983
LU99A	0.915	0.894	1.04	0.797	0.948	0.868	0.838	1.03	0.885
LXF-289	1.01	1.07	1.06	0.93	0.973	0.99	0.993	1.04	1
NCI-H23	0.967	0.861	1	0.61	0.624	0.975	0.962	1.05	0.927
NCI-H322M	0.847	0.822	0.838	0.495	0.633	0.856	1.09	0.9	0.854
NCI-H358	0.856	0.86	0.92	0.468	0.489	0.918	1.03	0.939	0.684
NCI-H441	1.01	0.896	1.22	–	1.02	0.985	0.825	1.03	0.81
NCI-H460	0.963	0.969	1.01	0.846	0.822	0.997	1.01	0.992	0.978
NCI-H520	0.713	0.627	0.623	0.208	0.337	1.02	0.912	1.02	0.736
NCI-H522	0.959	0.789	0.981	0.926	0.768	0.987	1.01	0.936	1.02
NCI-H596	0.844	0.91	0.92	0.909	0.929	0.969	1.19	0.964	0.836
NCI-H647	0.797	0.564	0.859	0.513	0.646	0.872	1.06	1.04	0.764
NCI-H650	1.07	–	0.92	0.653	0.685	0.973	0.935	1.09	0.862
NCI-H661	0.981	0.98	0.973	0.671	0.851	0.978	0.987	1	1.01
NCI-H727	0.877	0.789	0.945	0.58	0.833	0.834	0.867	0.826	0.783
NCI-H838	0.826	0.95	0.914	0.538	0.535	0.992	1.03	1.08	0.92
NCI-H1299	0.998	1.07	1.14	0.914	1.02	0.984	1.03	1.06	0.97
NCI-H1355	0.872	0.852	1.01	0.733	0.777	0.891	0.992	1	0.95
NCI-H1395	0.742	0.539	0.697	0.443	0.527	0.925	1.09	0.976	0.787
NCI-H1437	1.04	0.972	1.03	0.847	0.726	0.983	0.992	1.06	0.99
NCI-H1563	0.829	0.852	0.906	0.763	0.722	0.974	0.963	0.967	0.966
NCI-H1623	0.899	0.947	0.955	0.76	0.632	0.933	0.965	0.979	0.966
NCI-H1648	0.888	0.863	0.954	0.519	0.599	0.713	0.798	0.757	1.13

Cell Line	relative viability ([1]; 0.08 µM)	relative viability ([1]; 0.253 µM)	relative viability ([1]; 0.8 µM)	relative viability ([1]; 2.53 µM)	relative viability ([1]; 8 µM)	relative viability ([2]; 0.2 µM)	relative viability ([2]; 0.6325 µM)	relative viability ([2]; 2 µM)	relative viability ([2]; 6.325 µM)
NCI-H1650	0.839	0.854	0.778	0.719	0.862	0.863	1.03	0.924	0.835
NCI-H1651	0.897	0.932	0.93	0.814	0.815	0.974	0.983	1.02	1.03
NCI-H1666	0.842	0.95	0.984	0.853	1.05	0.948	1.05	0.947	0.903
NCI-H1703	0.861	0.797	0.676	0.332	0.414	1.09	0.789	0.975	0.571
NCI-H1734	0.905	0.907	1.04	0.611	0.795	0.967	0.876	0.889	0.855
NCI-H1755	0.957	0.953	1	0.756	0.785	0.974	0.957	0.939	0.935
NCI-H1792	0.753	0.758	0.878	0.412	0.496	0.821	1.06	0.952	1.11
NCI-H1793	0.774	0.5	0.756	0.386	0.499	0.86	0.959	0.863	0.819
NCI-H1915	0.996	0.897	1.09	0.893	1.01	0.978	0.908	1.06	0.973
NCI-H1944	0.92	0.836	0.946	0.685	0.735	1.01	1	0.745	0.902
NCI-H1975	0.853	0.84	0.939	0.652	0.573	0.974	0.999	1.15	1
NCI-H1993	0.68	0.792	0.631	0.557	0.676	0.879	1.18	0.912	0.905
NCI-H2009	1.02	1.04	1.06	0.59	0.74	1.04	0.94	1.17	0.932
NCI-H2023	0.923	0.881	0.909	0.567	0.662	0.949	0.995	0.93	0.516
NCI-H2085	0.801	0.675	0.588	0.4	0.384	1.01	1.02	0.992	0.965
NCI-H2087	0.841	0.996	1.35	0.555	1.08	0.921	0.995	1.03	1.09
NCI-H2126	0.916	0.94	0.891	0.585	0.654	0.996	1.02	0.998	0.926
NCI-H2170	0.909	0.897	0.944	0.851	0.927	1.02	0.963	1	0.975
NCI-H2228	0.745	0.965	1.17	0.775	0.901	0.9	1.12	1.07	0.753
NCI-H2342	0.892	0.87	0.92	0.653	0.688	1.02	0.887	0.956	0.995
NCI-H2347	0.627	0.785	0.805	0.617	0.664	1.02	0.975	1.04	1
NCI-H2405	0.749	0.672	1.03	0.631	0.599	1.03	1.08	1.13	0.989
NCI-H3122	1	1.02	1.01	0.756	0.915	0.932	0.959	1.04	0.998
PC-3 [JPC-3]	0.899	1.06	1.08	0.814	0.985	1.06	1.02	1.06	0.959
PC-14	0.953	0.972	1.12	0.849	0.979	0.97	1.05	0.977	0.475
